Paper PMC6630221, “Semi-Synthesis and Evaluation of Sargahydroquinoic Acid Derivatives as Potential Antimalarial Agents” (Medicines, 2019)

Tests used:
[1] = system: chloroquine-resistant Gambian FCR-3 strain of P. falciparum; assay: Antiplasmodial tritiated hypoxanthine incorporation assay; assay type: cell-based, Plasmodium falciparum; settings: for antiplasmodial activity (in words): FCR-3 strain of P. falciparum; for IC50: Plasmodium falciparum, FCR3, chloroquine-resistant FCR-3 strain, 0.5% parasitaemia, 1% haematocrit, triplicate; for Selectivity Index: ratio of cytotoxicity IC50 (MDA-MB-231) to antimalarial IC50 (FCR-3)
Experimental: All compounds were tested in triplicate against the chloroquine-resistant Gambian FCR-3 strain of P. falciparum. The in vitro erythrocytic stage of the parasite was maintained using the method outlined by Trager and Jensen. The antimalarial activity of the compounds was determined using the tritiated hypoxanthine incorporation assay using a 0.5% parasitaemia and 1% haematocrit. All assays were carried out using untreated parasites and uninfected red blood cells as controls. The concentration that inhibited 50% parasite growth (IC50 value) was determined from the log sigmoid dose response curve using GraphPad Prism. Quinine was used as the reference antiplasmodial agent. The selectivity index for the compounds was determined from the ratio of cytotoxicity IC50 to antimalarial IC50.

[2] = system: MDA-MB-231 breast carcinoma cells; assay: Cytotoxicity WST-1 assay; assay type: cell-based; settings: MDA-MB-231 cells; for IC50: Homo sapiens, WST-1, triplicate
Experimental: All compounds were tested in triplicate against MDA-MB-231 breast carcinoma cells, which were purchased from the ATCC (Catalogue number HTB-26, Manassas, VA, USA). The cytotoxicity of the compounds was determined using the WST-1 assay method (Roche). The cells were treated with a range of concentrations of the test compounds or vehicle control (DMSO). Cells treated with DMSO were considered to represent 100% viability and the viability of cells at each dose was represented relative to this value. The concentration resulting in a decrease of cell viability to 50% was calculated from the linear portion of the dose response curve.

[3] = system: Plasmodium falciparum (D10); design: method as in PMID 19227833; settings: chloroquine sensitive strain D10 of P. falciparum; ref [5]; cited from earlier work
[4] = listed as sarganaphthoquinoic acid (10)

SMILES | IC50 [1] | antiplasmodial activity (in words) [1] | Selectivity Index [1] | IC50 [2] | IC50 [3] | antiplasmodial activity (in words) [1, 4] | cytotoxicity (in words) [2] | cytotoxicity (in words) [2, 4]
CC(C)=CCC/C(C=O)=C\CC/C(C)=C/CC/C(C)=C/CC1=CC(=O)C=C(C)C1=O [10E-sargaquinal (9), 10’E-sargaquinal] | 104 µM | decreased antiplasmodial activity | 0.7 | 69 µM | 2 µM | – | – | –
CC(C)=CCC/C(C=O)=C/CC/C(C)=C/CC/C(C)=C/CC1=CC(=O)C=C(C)C1=O [10Z-sargaquinal (4), 2’E,6’E,10’Z-sargaquinal] | 72.6 µM | decreased antiplasmodial activity | 2.9 | 211 µM | – | – | – | –
CC(C)=CCC/C(=C/CC/C(C)=C/CCC1(C)C=Cc2cc(O)cc(C)c2O1)C(=O)O (stereo not drawn) [Sargachromenol (7), sargachromenol] | 115 µM | – | 0.5 | 56 µM | – | – | – | –
CC(C)=CCC/C(=C/CC/C(C)=C/CC/C(C)=C/Cc1cc(O)cc(C)c1O)C(=O)O [Sargahydroquinoic acid (1), sargahydroquinoic acid] | 38.6 µM | – | 1.8 | 70 µM | 15.2 µM | – | – | –
CC(=O)Oc1cc(C)c(OC(C)=O)c(C/C=C(\C)CC/C=C(\C)CC/C=C(/CCC=C(C)C)C(=O)O)c1 [Sargahydroquinoic acid di-acetate (2), Diacetyl Sargahydroquinoic Acid] | 84.3 µM | – | 3.4 | 286 µM | – | – | – | –
CC(C)=CCC/C(=C/CC/C(C)=C/CC/C(C)=C/CC1=CC(=O)C=C(C)C1=O)CO [Sargaquinol (6), sargaquinol] | 93.1 µM | decreased antiplasmodial activity | 1.1 | 99 µM | – | – | – | –

These reach a lower IC50 [1]. Values come first.

IC50 [1] | SMILES | antiplasmodial activity (in words) [1] | Selectivity Index [1] | IC50 [2] | IC50 [3] | antiplasmodial activity (in words) [1, 4] | cytotoxicity (in words) [2] | cytotoxicity (in words) [2, 4]
0.17 µM | C=C[C@H]1C[N@@]2CC[C@H]1C[C@H]2[C@H](O)c1ccnc2ccc(OC)cc12 [Quinine, reference compound] | – | – | – | – | – | – | –
34.2 µM | CC(C)=CCC/C(=C/CC/C(C)=C/CCC1(C)C=Cc2cc(O)cc(C)c2O1)CO (stereo not drawn) [Sargachromendiol (8), sargachromendiol] | – | 5.5 | 187 µM | – | – | – | –
5.4 µM | CC(C)=CCC/C(=C/CC/C(C)=C/CCc1ccc2c(c1)C(=O)C=C(C)C2=O)C(=O)O [Sarganaphthoquinone (10), sarganaphthoquinoic acid] | most promising antiplasmodial activity | – | 2410 µM | – | good antiplasmodial activity | low cytotoxicity | almost non-toxic
10.8 µM | CC(C)=CCC/C(=C/CC/C(C)=C/CC/C(C)=C/CC1=CC(=O)C=C(C)C1=O)C(=O)O [Sargaquinoic acid (3), sargaquinoic acid] | most promising antiplasmodial activity | 60.9 | 658 µM | 12 µM | – | low cytotoxicity | –
8.2 µM | COC(=O)/C(=C\CC/C(C)=C/CC/C(C)=C/CC1=CC(=O)C=C(C)C1=O)CCC=C(C)C [Sargaquinoic acid methyl ester (5), sargaquinoic acid methyl ester] | – | 8.6 | 70 µM | – | – | – | –
